Where two headings read alike, the source gives them in different places.
What was measured:
[1] = target: T1, mtIMPDH (Mycobacterium tuberculosis, UniProt P9WKI7); assay: biochemical; format: biochemical
[2] = target: hIMPDH1 (Homo sapiens, UniProt P20839); assay: IMPDH inhibition assay; format: biochemical; conditions: hIMPDHs, isoform not specified; relative to compound 6
[3] = target: T1, mtIMPDH; format: biochemical
[4] = system: human-type 2 IMPDH; conditions: cited from earlier work
[5] = system: human-type 1 IMPDH; conditions: cited from earlier work
[6] = target: T1, mtIMPDH; assay: biochemical

T1 sequence (P9WKI7 whole entry, looked up, canonical isoform): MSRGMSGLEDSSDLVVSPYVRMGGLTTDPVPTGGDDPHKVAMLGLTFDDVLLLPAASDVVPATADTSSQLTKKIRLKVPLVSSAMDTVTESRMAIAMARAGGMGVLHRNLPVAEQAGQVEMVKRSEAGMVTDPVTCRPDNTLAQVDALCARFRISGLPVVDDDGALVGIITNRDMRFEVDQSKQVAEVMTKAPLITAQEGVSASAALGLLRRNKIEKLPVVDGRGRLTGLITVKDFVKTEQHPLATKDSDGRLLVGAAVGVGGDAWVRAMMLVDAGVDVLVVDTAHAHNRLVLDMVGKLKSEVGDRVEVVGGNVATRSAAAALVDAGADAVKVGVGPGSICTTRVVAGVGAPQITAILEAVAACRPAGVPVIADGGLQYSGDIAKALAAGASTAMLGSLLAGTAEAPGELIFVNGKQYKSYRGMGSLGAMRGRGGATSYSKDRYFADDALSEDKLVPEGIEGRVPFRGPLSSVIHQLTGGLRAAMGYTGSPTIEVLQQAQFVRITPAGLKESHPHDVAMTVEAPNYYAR
hIMPDH1, sequence (P20839 whole entry, canonical isoform): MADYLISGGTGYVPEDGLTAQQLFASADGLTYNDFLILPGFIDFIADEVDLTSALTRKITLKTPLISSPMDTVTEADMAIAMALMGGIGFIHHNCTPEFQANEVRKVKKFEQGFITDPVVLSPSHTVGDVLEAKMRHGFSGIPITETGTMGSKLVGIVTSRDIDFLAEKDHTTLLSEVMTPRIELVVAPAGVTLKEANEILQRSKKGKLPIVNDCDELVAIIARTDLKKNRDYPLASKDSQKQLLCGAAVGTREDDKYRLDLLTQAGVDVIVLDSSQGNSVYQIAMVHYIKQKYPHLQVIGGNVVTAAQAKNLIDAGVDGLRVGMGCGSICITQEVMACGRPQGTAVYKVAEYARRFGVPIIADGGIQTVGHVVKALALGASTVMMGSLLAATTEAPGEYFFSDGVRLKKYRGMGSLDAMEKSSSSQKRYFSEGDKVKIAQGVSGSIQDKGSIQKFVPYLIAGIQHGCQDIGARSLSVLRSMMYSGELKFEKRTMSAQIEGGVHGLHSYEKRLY

Structure (SMILES): COc1c(C)c2c(c(O)c1C/C=C(\C)CCC(=O)O)C(=O)OC2 [Compound 1, Mycophenolic acid]
- Hill-slope ([1]; fit of Ki^app against mtIMPDH): 1.5
- Ki^app value against mtIMPDH with detergent ([1]; reaction buffer containing 0.1% Trition X-100, compared with buffer without): not affected

Structure (SMILES): COc1c(C)c2c(c(O)c1CCOP(=O)(O)CP(=O)(O)OC[C@H]1O[C@@H](n3cnc4c(N)nc(-c5ccccc5)nc43)[C@H](O)[C@@H]1O)C(=O)OC2 [Compound 3b]
- Ki [1]: > 100 µM

Structure (SMILES): COc1c(C)c2c(c(O)c1C/C=C(\C)COP(=O)(O)CP(=O)(O)OC[C@H]1O[C@@H](n3cnc4c(N)ncnc43)[C@H](O)[C@@H]1O)C(=O)OC2 [Compound 4]
- Ki [1]: > 100 µM

Structure (SMILES): COc1c(C)c2c(c(O)c1CCNS(=O)(=O)CS(=O)(=O)NC[C@H]1O[C@@H](n3cnc4c(N)nc(-c5ccccc5)nc43)[C@H](O)[C@@H]1O)C(=O)OC2 [Compound 5b]
- Ki [1]: > 100 µM

Structure (SMILES): C#Cc1nc(N)c2ncn([C@@H]3O[C@H](CNS(=O)(=O)CS(=O)(=O)NCCc4c(O)c5c(c(C)c4OC)COC5=O)[C@@H](O)[C@H]3O)c2n1 [Compound 5c]
- Ki [1]: > 100 µM

Structure (SMILES): CCc1nc(N)c2ncn([C@@H]3O[C@H](CNS(=O)(=O)CS(=O)(=O)NCCc4c(O)c5c(c(C)c4OC)COC5=O)[C@@H](O)[C@H]3O)c2n1 [Compound 5d]
- Ki [1]: > 100 µM

Structure (SMILES): COc1c(C)c2c(c(O)c1CCNCc1cn(C[C@H]3O[C@@H](n4cnc5c(N)ncnc54)[C@H](O)[C@@H]3O)nn1)C(=O)OC2 [Compound 6, 6-(2-(((1-(5′-Deoxy-adenosin-5′-yl)-1H-1,2,3-triazol-4-yl)methyl)amino)ethyl)-7-hydroxy-5-methoxy-4-methylisobenzofuran-1(3H)-one]
- Ki [1]: > 100 µM

Structure (SMILES): COc1c(C)c2c(c(O)c1CCn1cc(COC[C@H]3O[C@@H](n4cnc5c(N)ncnc54)[C@H](O)[C@@H]3O)nn1)C(=O)OC2 [Compound 8, 6-(2-(4-(Adenosin-5′-yl)methyl-1H-1,2,3-triazol-1-yl)ethyl)-7-hydroxy-5-methoxy-4-methylisobenzofuran-1(3H)-one]
- fold more potent than compound 6 [2]: 10 fold
- Ki [1]: > 100 µM

Structure (SMILES): COc1c(C)c2c(c(O)c1C/C=C(\C)Cn1cc(COC[C@H]3O[C@@H](n4cnc5c(N)ncnc54)[C@H](O)[C@@H]3O)nn1)C(=O)OC2 [Compound 9, 6-((E)-4-(4-(Adenosin-5′-yl)methyl-1H-1,2,3-triazol-1-yl)-3-methylbut-2-en-1-yl)-7-hydroxy-5-methoxy-4-methylisobenzofuran-1(3H)-one]
- activity against mtIMPDH (in words) [1]: significant inhibition
- uncompetitive Kiu vs. IMP ([3]; IMP varied 1.4 μM to 1 mM, NAD fixed 0.5 mM, mtIMPDH […]): 2.2 ± 0.1 µM
- uncompetitive Kiu vs. NAD ([3]; NAD varied 94 μM to 3 mM, IMP fixed 100 μM, mtIMPDH […]): 1.5 ± 0.1 µM
- mode of inhibition ([3]; with respect to both NAD and IMP): uncompetitive

Structure (SMILES): NC(=O)c1ccc[n+]([C@@H]2O[C@H](COP(=O)([O-])OP(=O)(O)OC[C@H]3O[C@@H](n4cnc5c(N)ncnc54)[C@H](O)[C@@H]3O)[C@@H](O)[C@H]2O)c1 [NAD, nicotinamide adenine dinucleotide]
- Km ([4]; read-out: KM (NAD), ref [27]): 6 ± 1 µM
- Ki ([4]; read-out: Ki (NAD), ref [27]): 590 ± 20 µM
- Km ([5]; read-out: KM (NAD), ref [28]): 70 ± 10 µM
- Ki ([5]; read-out: Ki (NAD), ref [28]): 2000 ± 600 µM
- Ki [6]: 5000 ± 600 µM

— publication PMC2903443 (Journal of medicinal chemistry, 2010)
